# Assay results published in patent publication US20200291082A1, “PREVENTION AND TREATMENT OF GRAFT-VERSUS-HOST-DISEASE WITH DEFENSINS” (priority 2017, published 2020).
# What was measured:
# [1] = system: house dust mite model of allergic asthma; test: therapeutic intranasal versus oral hBD2 in murine house dust mite model of allergic asthma (Example 10); format: in vivo, BALB/c mice; details: dexamethasone 1 mg/kg BID oral; hBD2 both IN doses (0.4 mg/kg/day TID and 1.7 mg/kg/day TID)
# Procedure: To determine and assess the efficacy of IN versus oral therapeutic intervention with defensins in a murine house dust mite model of allergic asthma.
# Treatment regime: Female 7-10 weeks old BALB/c mice were randomly allocated into 7 study groups one day prior to study start and subcutaneously (SC) sensitized to house dust mite (100 μg HDM in 200 μL saline plus Freund's complete adjuvant in 0.9% saline). Mice were then intranasally (IN) challenged with HDM on day 14 (HDM 25 μg in 50 μL of saline). Dexamethasone was administered orally (1 mg/kg BID; 50 μL phosphate buffered saline (PBS)) on day 14. hBD2 was administered IN or orally (1.7 mg/kg TID IN; 0.4 mg/kg TID IN; 0.4 mg/kg TID orally, 50 μL phosphate buffered saline) on day 14. The initial dose was administered 60 minutes prior to challenge, and the subsequent doses approximately 6 hours apart (FIG. 5).
# Airway inflammation: At 48 hours post challenge, bronchoalveolar lavage was performed washing the lungs with 3 volumes of cold PBS (0.4; 0.3 and 0.3 mL, total 1 mL). Total and differential leucocyte cell counts were determined on an automated haematological analyser Sysmex XT-2000iV.
# Data are represented as airway resistance at […] methacholine and as dose responsive curves.
# Lung sampling for cytokine analysis: After completion of every BAL, lungs were removed from the thorax, snap frozen in liquid nitrogen and stored frozen at −80 degrees Celsius until analysis of cytokine concentration of IL-1β, TNF-α, IL-6, IL-10 and IFNγ by ELISA.
# [2] = system: Trinitrobenzene Sulfonic Acid induced colitis; test: prophylactic murine 8-day Trinitrobenzene Sulfonic Acid induced colitis model (Example 3); format: in vivo, BALB/cByJ mice; details: Prednisolone 10 mg/kg s.c. once daily; hBD2 at 0.1, 0.3 and 1 mg/kg s.c. once daily
# Procedure: Anti-inflammatory effect of s.c. administration of hBD2 versus s.c. prednisolone in a prophylactic murine, 8-day Trinitrobenzene Sulfonic Acid induced colitis model.
# 105 male BALB/cByJ mice housed in groups of five per cage were allocated to 7 different treatment groups. Colitis was induced by intracolonic administration of trinitrobenzene sulfonic acid on day 0 under light anaesthesia resulting in significant inflammation and injury of the colonic tissue. The animals were treated with hBD2 at four different dosing levels once daily (1 mg/kg, 0.3 mg/kg, 0.1 mg/kg, and 0.03 mg/kg) or Prednisolone 10 mg/kg once daily dosed subcutaneously under the dorsal skin or PBS as vehicle for 7 days.
# (§1) A disease activity index (DAI) scoring system was applied for clinical assessment (FIG. 7). The animals were sacrificed on day 10 and colon removed for histological assessment employing a histological scoring system (FIG. 8).
# [3] = system: Dextran Sodium Sulphate induced colitis; test: prophylactic murine 10-day oral Dextran Sodium Sulphate induced colitis model, oral hBD2 versus oral prednisolone (Example 2); format: in vivo, C57BL/6 mice; details: versus vehicle; Prednisolone 1 mg/kg twice per day p.o.; oral hBD2 all doses
# Procedure: Anti-inflammatory effect of oral administration of hBD2 versus oral prednisolone in a prophylactic murine, 10-day, oral Dextran Sodium Sulphate induced colitis model.
# 50 male C57BL/6 mice housed in groups of five per cage were allocated to 5 different treatment groups. All animals had their drinking water supplemented with DSS 2% for 7 days to induce colitis resulting in significant inflammation and injury of the colonic tissue. The animals were treated with oral hBD2 dosed at three different dose levels twice per day or prednisolone 1 mg/kg twice per day or PBS as vehicle for 10 days.
# as §1
# [4] = system: CD4+CD25+ Tcell transfer induced colitis; test: therapeutic murine 14 weeks CD4+CD25+ Tcell transfer induced colitis model (Example 6); format: in vivo, SCID mice; details: hBD2 1 mg/kg s.c. OD, Dexamethasone 0.3 mg/kg i.p. OD, Enbrel 100 μg/mouse s.c. twice weekly
# Excerpt: Efficacy of s.c. administration of hBD2 versus s.c. anti TNF-α (Enbrel) and intraperitoneal dexamethasone in a therapeutic, murine, 14 weeks, CD4+CD25+ Tcell transfer induced colitis model.
# 70 female BALB/c mice housed in groups of five per cage were allocated to 7 different treatment groups. Colitis was induced in SCID mice by transplantation of CD4+CD25+ Tcells from BALB/c mice. Lymphocytes isolated from spleen and lymph nodes from BALB/c mice were subjected to negative selection of CD4+ Tcells. Afterwards, CD4+CD25+ cells were positively isolated by binding to the beads from the CD4+ Tcell suspensions and the CD4+CD25− were collected from the supernatant. The animals were treated with hBD2, 0.1 mg/kg s.c. OD; 1 mg/kg s.c. OD or 3 mg/kg s.c. OD or with mouse anti TNFα 100 μg/mouse s.c. twice weekly or with dexamethasone 0.3 mg/kg intraperitoneally OD or PBS s.c. as vehicle from day 7 and 86 consecutive days.
# Clinical assessment was based on body weight loss, stool consistency and presence of blood per rectum. The animals were sacrificed on day 95 and colon removed for assessment of weight and myeloperoxidase activity.
# [5] = system: bacteria at the surface of the intestinal mucosa; test: anti microbial effect of orally administered defensins, mucin immunostaining and localization of bacteria by FISH (Example 16); format: in vivo; details: compared with mice on low fat or western diet
# Procedure: Anti microbial effect of orally administered defensins (HD5 and hBD-2).
# Mucus immunostaining was paired with fluorescent in situ hybridization (FISH), as previously described in order to analyze bacteria localization at the surface of the intestinal mucosa. Briefly, colonic tissues (proximal colon, 2nd cm from the cecum) without fecal material were placed in methanol-Carnoy's fixative solution (60% methanol, 30% chloroform, 10% glacial acetic acid) for a minimum of 3 hours at room temperature. Tissues were then washed in methanol 2×30 min, ethanol 2×15 min, ethanol/xylene (1:1), 15 min and xylene 2×15 min, followed by embedding in Paraffin with a vertical orientation. Five pm sections were performed and dewax by preheating at 60° C. for 10 min, followed by xylene 60° C. for 10 min, xylene for 10 min and 99.5% ethanol for 10 minutes. Hybridization step was performed at 50° C. overnight with EUB338 probe (5′-GCTGCCTCCCGTAGGAGT-3′, with a 5′ labeling using Alexa 647) diluted to a final concentration of 10 μg/mL in hybridization buffer (20 mM Tris-HCl, pH 7.4, 0.9 M NaCl, 0.1% SDS, 20% formamide). After washing 10 min in wash buffer (20 mM Tris-HCl, pH 7.4, 0.9 M NaCl) and 3×10 min in PBS, PAP pen (Sigma-Aldrich) was used to mark around the section and block solution (5% fetal bovine serum in PBS) was added for 30 min at 4° C. […]
# [6] = system: gut microbiota in high fat diet murine model; test: prophylactic treatment with defensins in murine high fat diet model, gut microbiota (Example 7); format: in vivo, mice
# Excerpt: Protection and preservation of gut microbiota by prophylactic treatment with defensins. Mice: Mice were housed in trios, 4 cages per group. Feed intake was registered daily just before lights were turned off at 6 pm. Individual mice were subjected to experimental procedures in altered order both group and cage wise. Mice were kept at room temperature under a 12-hour light/dark cycle at SPF standard conditions. Diets: For dosing, the average weight was estimated to be 25 grams per mouse. Mice eat approximately 3 grams of feed per mouse per day. Treatment regime: Mice were fed either a high fat diet (HFD) or a low fat (LF) control diet. The HFD contained 4 subgroups; 1 hBD2, 1 HD5, 1 hBD2/HD5 and 1 standard HFD without supplementation of defensins (FIG. 3). Defensin concentration was 1,2 mg hBD2 per kg mouse per day. HD5 was given in equimolar concentration to hBD2. […] Microbial analyses were carried out to study the microbiota of the intestine. Longitudinal 16S characterization was conducted on 4 paired samples from 60 mice, 240 samples in total. Each mouse was sampled prior to diet change, 1 week post diet change, 4 weeks post diet change and at termination, thus ensuring a thorough characterization of the faecal microbiota as a result of defensin treatment.
# [7] = system: acute graft versus host disease following stem cell transplantation; test: prophylactic oral HD5 or hBD-2 in murine model of acute graft versus host disease (Example 15); format: in vivo, BALB/c mice
# Procedure: To determine and assess the efficacy of prophylactic treatment with oral HD5 in a murine model of acute graft versus host disease following stem cell transplantation.
# Treatment regime: 22 female BALB/c mice were irradiated with 4.5 Gy (2×498 sec) at intervals of at least 4 hours on day 0. Bone marrow was harvested: hind limbs harvested from 2 female WT C57BL/6 mice aseptically. Skeletal muscle was removed and epiphysis cut away. Lumen of bone flushed with PBS and cells pelleted and taken up. Harvest of T-cells: spleens from 2 female WT C57BL/6 mice were meshed through a […] cell strainer into a PBS filled dish. Cells were taken up in PBS and transferred into a 50 mL falcon tube and spun down. Cells were taken up in 1 mL PBS and 20 μL of CD4 microbead+20 μL CD8 microbeads per spleen added for incubation for 20 min at 4 degrees C. Cells were washed with PBS and applied to MACS separation in order to positively select CD4+ and CD8+ cells. Positively selected T-cells were counted and taken up. Transplantation: directly after the second irradiation, all WT BALB/c recipient mice were injected with 5×1.000.000 BM cells (50 μL) i.v. into the retroorbital venous plexus under isoflurane anesthesia. 22 BALB/c mice were treated with 1.2 mg of HD5/kg BW/day; 1.2 mg of hBD-2/kg BW/day or 100 μL of PBS per day vial oral gavage from day 0-10.
# Survival was monitored for 60 days.
# [8] = system: microbiota in diet-induced obese mice; test: interventional treatment of dysbiosis with defensins in diet-induced obese mice (Example 8); format: in vivo
# Excerpt: Mice and diets. The experiment elucidates the effect of hBD2 and HD5 on the microbiota in diet-induced obese mice. A run-in period of 13 weeks where mice were fed a very HFD (60% energy from fat) preceded the intervention. Only mice meeting the criteria of a minimum of 12 gram weight gain (approximately 50% of initial bodyweight) during the run-in period were included in the final analyses. […] They were exposed to all experimental tests, but excluded from the analyses.
# Treatment regimen. Before the intervention all mice were MR scanned. Cages of mice were allocated to experimental groups based on their fat mass. All subsequent measures were paired with data from the same mouse before the intervention. A LFD (low fat diet) reference group was running in parallel. As controls for the intervention 2 additional groups were included: 1 very HFD and 1 LFD. Experimental mice stayed on the very HFD during the intervention (FIG. 3). The mice were on the experimental diet for 10 weeks. They were co-housed throughout the experiment, 4 mice per cage, 3 cages per group. All tests ran over 3 days, 1 cage per group per day.
# Tests. Microbial analyses were carried out to study the microbiota of the intestine.
# Longitudinal 16S characterization was conducted on 4 paired samples from 60 mice, 240 samples in total. Each mouse was sampled prior to diet change, 1 week post diet change, 4 weeks post diet change and at termination, thus ensuring a thorough characterization of the faecal microbiota as a result of defensin treatment.
# [9] = HFD plus HD5, after dietary intervention
molecule,measurement,setting,value
"C[C@@H]1C[C@H]2[C@@H]3CCC4=CC(=O)C=C[C@]4(C)[C@@]3(F)[C@@H](O)C[C@]2(C)[C@@]1(O)C(=O)CO [Dexamethasone, reference compound]",macrophage counts in BALF,[1],failed to inhibit
same,neutrophil counts in BALF,[1],failed to inhibit
"C[C@]12C=CC(=O)C=C1CC[C@@H]1[C@@H]2[C@@H](O)C[C@@]2(C)[C@H]1CC[C@]2(O)C(=O)CO [Prednisolone, reference compound]",histological score,[2],highly statistically significant clinical effect on histological score
same,histological score,[3],statistically significant effect on histological score
Enbrel [reference compound],myeloperoxidase activity,"[4]; colon, day 95",statistically significant and similar effect
same,"clinical score (body weight loss, stool consistency, presence of blood per rectum)",[4],statistically significant and similar effect on clinical score
same,colon weight,[4]; day 95,statistically significant and similar effect on colon weight
human intestinal alpha defensin 5 (ATCYCRTGRCATRESLSGVCEISGRLYRLCCR; listed as Homo sapiens) [HD5],"lysis zone, distance between intestinal wall and bacterial population",[5],profound effect on the distance
same,microbial presence and abundance (unifrac analysis),[6]; prophylactic oral defensins in high fat diet,affected primarily the microbial abundance
same,abundance of Allobaculum,"[6]; small intestine, prophylaxis with HD5",statistically significant increase of abundance of Allobaculum
same,mortality,"[7]; FIG. 58, oral treatment for 10 days from day of stem cell transplantation",significant reduction of mortality
same,treated animals that had died by day 60,"[7]; oral 1.2 mg/kg/day day 0-10, six out of eight PBS mice died",2 out of 8
same,fat percentage,"[8]; HFD plus HD5, 4 weeks after dietary change, versus HFD control",significantly lower fat percentage
same,fat percentage,[8]; [9],tendency of decreasing fat percentage
same,weight gain,[8]; [9],gained significantly less weight than the HFD control
same,abundance of Alloprevotella,[8]; colon,increased the abundance of Alloprevotella statistically significantly
same,relative abundance of Bifidobacteriaceae,[8]; small intestine,trend towards HD5 increasing the abundance
